Target: T1, TGF-beta receptor type-1 (Homo sapiens, UniProt P36897)
T1 sequence (P36897 whole entry): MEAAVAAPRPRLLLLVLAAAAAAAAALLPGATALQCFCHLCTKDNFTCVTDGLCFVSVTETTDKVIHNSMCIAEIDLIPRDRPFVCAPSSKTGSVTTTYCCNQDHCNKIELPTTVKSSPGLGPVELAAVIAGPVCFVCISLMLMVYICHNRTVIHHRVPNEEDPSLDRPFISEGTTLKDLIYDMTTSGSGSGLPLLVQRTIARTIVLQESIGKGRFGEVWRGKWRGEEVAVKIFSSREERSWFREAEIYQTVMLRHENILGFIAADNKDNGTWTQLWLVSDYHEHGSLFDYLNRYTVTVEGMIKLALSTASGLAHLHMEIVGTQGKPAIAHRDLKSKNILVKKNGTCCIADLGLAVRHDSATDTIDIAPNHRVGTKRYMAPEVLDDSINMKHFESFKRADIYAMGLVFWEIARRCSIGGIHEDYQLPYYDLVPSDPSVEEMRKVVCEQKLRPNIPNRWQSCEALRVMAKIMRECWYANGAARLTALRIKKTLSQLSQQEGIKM

Row | IC50 | Structure (SMILES)
1 | 34 nM | COCCC(=O)Nc1ccc2c(-c3c(-c4ccccn4)nn4c3CCC4)ccnc2c1
2 | 110 nM | CCSc1ccc2c(-c3c(-c4ccccn4)nn4c3CCC4)ccnc2c1
3 | 71 nM | CCc1cccc(-c2nn3c(c2-c2ccnc4ccccc24)CCC3)n1
4 | 32 nM | O=C(CCO)Nc1ccc2c(-c3c(-c4ccccn4)nn4c3CCC4)ccnc2c1
5 | 255 nM | CN(C)CCCNC(=O)Nc1ccc2c(-c3c(-c4ccccn4)nn4c3CCC4)ccnc2c1
6 | 104 nM | c1ccc(-c2nn3c(c2-c2ccnc4ccccc24)CCC3)nc1
7 | 9290 nM | CCS(=O)(=O)c1ccc2c(-c3c(-c4ccccn4)nn4c3CCC4)ccnc2c1
8 | 79 nM | O=C(Nc1ccc2c(-c3c(-c4ccccn4)nn4c3CCC4)ccnc2c1)OCCO
9 | 19 nM | c1ccc(-c2n[nH]cc2-c2ccc3ncccc3n2)nc1
10 | 119 nM | C#Cc1cccc(NCc2nc(-c3ccc4nccnc4c3)c(-c3cccc(CC)n3)[nH]2)c1
11 | 151 nM | Fc1ccc(-c2nn3c(c2-c2ccnc4ccccc24)CCC3)nc1
12 | 1780 nM | Nc1nc(-c2cccc(Cl)n2)c(-c2ccnc3ccccc23)s1
13 | 174 nM | C#Cc1ccc(NCc2nc(-c3ccc4c(c3)OCO4)c(-c3cccc(C)n3)[nH]2)cc1
14 | 64 nM | CN(C)CC(=O)Nc1ccc2c(-c3c(-c4ccccn4)nn4c3CCC4)ccnc2c1
15 | 48 nM | Cc1cccc(-c2nn3c(c2-c2ccnc4cc(Cl)ccc24)CCC3)n1
16 | 27 nM | O=C(O)c1ccc(-c2cc(-c3c[nH]nc3-c3ccccn3)ccn2)cc1
17 | 398 nM | CN(C)CCCn1cnc2cc(-c3c(-c4ccccn4)nn4c3CCC4)ccc21
18 | 59 nM | Nc1ccc2c(-c3c(-c4ccccn4)nn4c3CCC4)ccnc2c1
19 | 40 nM | COC(=O)Nc1ccc2c(-c3c(-c4ccccn4)nn4c3CCC4)ccnc2c1
20 | 88 nM | CCOc1ccc2c(-c3c(-c4cccc(C)n4)nn4c3CCC4)ccnc2c1
21 | 87 nM | CC(=O)Nc1ccc2c(-c3c(-c4ccccn4)nn4c3CCC4)ccnc2c1
22 | 1700 nM | Cc1cccc(-c2nn3c(c2-c2ccc4c(c2)ncn4C)CCC3)n1
23 | 46 nM | CCc1cccc(-c2[nH]c(CNc3ccc(C(N)=O)cc3)nc2-c2ccc3c(c2)OCO3)n1

Row | Structure (SMILES) | IC50
24 | Nc1nc(-c2cccc(Cl)c2)c(-c2ccc3ncccc3n2)s1 [GW780159X] | 13 nM
25 | Nc1nc(-c2ccc(F)cc2)c(-c2ccc3ncccc3n2)s1 [GW785804X] | 11 nM
26 | C#Cc1ccc(CNc2nc(-c3ccc4c(c3)OCO4)c(-c3cccc(C)n3)[nH]2)cc1 | 153 nM
27 | Cc1cccc(-c2[nH]c(CNc3ccc(C#N)cc3)nc2-c2ccc3c(c2)OCO3)n1 | 46 nM
28 | CN(C)CCNC(=O)Nc1ccc2c(-c3c(-c4ccccn4)nn4c3CCC4)ccnc2c1 | 18 nM
29 | Cc1cccnc1-c1nc(N)sc1-c1ccc2ncccc2n1 | 6 nM
30 | CN(C)CCCc1cccc(-c2cc(-c3c[nH]nc3-c3ccccn3)ccn2)c1 | 15 nM
31 | Fc1ccc(C2C(c3ccncc3)NC3SCCN32)cc1 (stereo unspecified) | 50000 nM
32 | c1ccc(-c2n[nH]cc2-c2ccnc(-c3ccc(CNC4CCCOC4)cc3)c2)nc1 (stereo unspecified) | 47 nM
33 | Cc1cccc(-c2[nH]c(NCc3ccc(C#N)cc3)nc2-c2ccc3c(c2)OCO3)n1 | 24 nM
34 | Cc1cccc2ccc(-c3sc(N)nc3-c3ccccn3)nc12 | 30 nM
35 | CCc1[nH]c(-c2ccc(OC)cc2)nc1-c1ccncc1 [SB-202474] | 30000 nM
36 | Cc1cccc(-c2[nH]c(CNc3ccc(C(N)=O)cc3)nc2-c2ccc3c(c2)OCO3)n1 | 21 nM

Reference: ChEMBL document CHEMBL1155322, “Pharmacophore modeling and virtual screening for the discovery of new transforming growth factor-beta type I receptor (ALK5) inhibitors” (Eur J Med Chem, 2009)
